# Several values for one entry are separate records, joined by “and”; a condition that tells them apart may be missing. Identical values can stand only once.
# Tested on: MDA-MB-468 complex spheroids with HUVEC/MSC, viability
# Test: Anticancer human tumor MDA-MB-468 cell line growth inhibition;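 note: spheroids exposed to agents for seven days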;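 for viability, T/C: 100% = DMSO vehicle control viability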
# Settings: for viability, T/C: stronger effect = lower value
# In short: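 Multicellular complex spheroids of tumor cells with human endothelial cells (HUVEC) and mesenchymal stem cells; the LSD1 inhibitor iadademstat was combined with standard-of-care or investigational agents. Top concentration at or near clinical Cmax, half-log dilutions; final DMSO ≤0.25%.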
# [1] = curve of first compound, second compound 0.1 µM
# [2] = curve of first compound, second compound 0.316 µM
# [3] = curve of first compound, second compound 1 µM
# [4] = curve of first compound, second compound 3.16 µM
# [5] = curve of first compound, second compound 10 µM
# [6] = second compound 0.1 µM, first compound 0.0316 µM
# [7] = second compound 0.1 µM, first compound 0.1 µM
# [8] = second compound 0.1 µM, first compound 0.316 µM
# [9] = second compound 0.1 µM, first compound 1 µM
# [10] = second compound 0.316 µM, first compound 0.0316 µM
# [11] = second compound 0.316 µM, first compound 0.1 µM
# [12] = second compound 0.316 µM, first compound 0.316 µM
# [13] = second compound 0.316 µM, first compound 1 µM
# [14] = second compound 1 µM, first compound 0.0316 µM
# [15] = second compound 1 µM, first compound 0.1 µM
# [16] = second compound 1 µM, first compound 0.316 µM
# [17] = second compound 1 µM, first compound 1 µM
# [18] = second compound 3.16 µM, first compound 0.0316 µM
# [19] = second compound 3.16 µM, first compound 0.1 µM
# [20] = second compound 3.16 µM, first compound 0.316 µM
# [21] = second compound 3.16 µM, first compound 1 µM
# [22] = second compound 10 µM, first compound 0.0316 µM
# [23] = second compound 10 µM, first compound 0.1 µM
# [24] = second compound 10 µM, first compound 0.316 µM
# [25] = second compound 10 µM, first compound 1 µM
structure (smiles),measurement,setting,value
CC1COCCN1c1cc(-c2ccnn2C)c2ccnc(-c3ccn[nH]3)c2n1 (centres undefined),"viability, T/C",compound 0.00316 µM,81.2% and 38.9%
same,"viability, T/C",compound 0.01 µM,54.9% and 37.5%
same,"viability, T/C",compound 0.0316 µM,35.7% and 19.3%
same,"viability, T/C",compound 0.1 µM,27% and 8.03%
same,"viability, T/C",compound 0.316 µM,15.8% and 5.94%
same,"viability, T/C",compound 1 µM,12.2% and 2.35%
same,IC50,curve of compound,13.7 nM and < 3.16 nM
CC(C)c1c(-c2ccccc2)nc2c(C#N)c[nH]n2c1=O + NC1CC1c1ccc(-c2cccc(O)c2)cc1,IC50,[1],> 10000 nM
same,IC50,[2],> 10000 nM
same,IC50,[3],> 10000 nM
same,IC50,[4],> 10000 nM
same,IC50,[5],> 10000 nM
same,"viability, T/C",[6],91.7%
same,"viability, T/C",[7],89.1%
same,"viability, T/C",[8],94.4%
same,"viability, T/C",[9],96%
same,"viability, T/C","second compound 0.1 µM, first compound 3.16 µM",96.7%
same,"viability, T/C","second compound 0.1 µM, first compound 10 µM",84.1%
same,"viability, T/C",[10],89.2%
same,"viability, T/C",[11],82.6%
same,"viability, T/C",[12],92.5%
same,"viability, T/C",[13],91.4%
same,"viability, T/C","second compound 0.316 µM, first compound 3.16 µM",89.4%
same,"viability, T/C","second compound 0.316 µM, first compound 10 µM",87.9%
same,"viability, T/C",[14],89.1%
same,"viability, T/C",[15],88%
same,"viability, T/C",[16],86.7%
same,"viability, T/C",[17],102%
same,"viability, T/C","second compound 1 µM, first compound 3.16 µM",89.7%
same,"viability, T/C","second compound 1 µM, first compound 10 µM",79.5%
same,"viability, T/C",[18],102%
same,"viability, T/C",[19],83.5%
same,"viability, T/C",[20],87.6%
same,"viability, T/C",[21],88.2%
same,"viability, T/C","second compound 3.16 µM, first compound 3.16 µM",81.3%
same,"viability, T/C","second compound 3.16 µM, first compound 10 µM",74.7%
same,"viability, T/C",[22],66.7%
same,"viability, T/C",[23],67%
same,"viability, T/C",[24],59.3%
same,"viability, T/C",[25],57.2%
same,"viability, T/C","second compound 10 µM, first compound 3.16 µM",67.1%
same,"viability, T/C","second compound 10 µM, first compound 10 µM",49.4%
Nc1ncn(C2CC(O)C(CO)S2)c(=O)n1 (centres undefined),"viability, T/C",compound 0.000949 µM,79.6% and 100%
same,"viability, T/C",compound 0.003 µM,74.9% and 93.2%
same,"viability, T/C",compound 0.00949 µM,75.2% and 70.6%
same,"viability, T/C",compound 0.03 µM,73.4% and 52%
same,"viability, T/C",compound 0.0949 µM,53.9% and 36.5%
same,"viability, T/C",compound 0.3 µM,34.9% and 20.4%
same,IC50,curve of compound,120 nM and 35.5 nM
COc1cc(Nc2ncc3c(n2)-c2ccc(Cl)cc2C(c2c(F)cccc2OC)=NC3)ccc1C(=O)O + NC1CCC(NC2CC2c2ccccc2)CC1,IC50,[1],5.48 nM
same,IC50,[2],5.74 nM
same,IC50,[3],5.62 nM
same,IC50,[4],4.4 nM
same,IC50,[5],4.25 nM
same,"viability, T/C","second compound 0.1 µM, first compound 0.00316 µM",67.1%
same,"viability, T/C","second compound 0.1 µM, first compound 0.01 µM",31%
same,"viability, T/C",[6],15.9%
same,"viability, T/C",[7],7.27%
same,"viability, T/C",[8],7.36%
same,"viability, T/C",[9],6.36%
same,"viability, T/C","second compound 0.316 µM, first compound 0.00316 µM",70.7%
same,"viability, T/C","second compound 0.316 µM, first compound 0.01 µM",30.2%
same,"viability, T/C",[10],16.6%
same,"viability, T/C",[11],8.6%
same,"viability, T/C",[12],7.02%
same,"viability, T/C",[13],7.03%
same,"viability, T/C","second compound 1 µM, first compound 0.00316 µM",69%
same,"viability, T/C","second compound 1 µM, first compound 0.01 µM",29.8%
same,"viability, T/C",[14],17.8%
same,"viability, T/C",[15],8.46%
same,"viability, T/C",[16],6.49%
same,"viability, T/C",[17],7.09%
same,"viability, T/C","second compound 3.16 µM, first compound 0.00316 µM",57.8%
same,"viability, T/C","second compound 3.16 µM, first compound 0.01 µM",30.5%
same,"viability, T/C",[18],19.4%
same,"viability, T/C",[19],9.33%
same,"viability, T/C",[20],7.94%
same,"viability, T/C",[21],6.66%
same,"viability, T/C","second compound 10 µM, first compound 0.00316 µM",57.7%
same,"viability, T/C","second compound 10 µM, first compound 0.01 µM",28%
same,"viability, T/C",[22],19.1%
same,"viability, T/C",[23],11.6%
same,"viability, T/C",[24],8.23%
same,"viability, T/C",[25],9.73%
